Laboratory results taken from ChEMBL document CHEMBL1152249, “2,6-Diaryl-4-acylaminopyrimidines as potent and selective adenosine A(2A) antagonists with improved solubility and metabolic stability” (Bioorg Med Chem Lett, 2008).
Activity calls are given as the source filed them. The calls are words filed in the database; no cut-off is given here.

Legend:
[1] = molecular target: Cytochrome P450 2D6 (Homo sapiens, UniProt P10635); assay: Inhibition of CYP2D6; type: ADME
[2] = molecular target: Adenosine receptor A2a (Homo sapiens, UniProt P29274); assay: Displacement of [3H]ZM-241385 from human adenosine A2A receptor expressed in HEK293 cells; type: cell-based
[3] = test system: Rattus norvegicus; assay: Inhibition of haloperidol-induced catalepsy in rat at 30 mg/kg, po; type: functional, organism-based; design: dose 30 mg/kg
[4] = molecular target: Cytochrome P450 3A4 (Homo sapiens, UniProt P08684); assay: Inhibition of CYP3A4; type: ADME
[5] = Metabolic stability in human liver microsomes assessed as intrinsic clearance; type: ADME, Microsome
[6] = Aqueous solubility at pH 8.0 by HPLC; type: physicochemical
[7] = molecular target: Adenosine receptor A2a (Rattus norvegicus, UniProt P30543); assay: Activity at adenosine A2A receptor in rat PC12 cells assessed as intracellular cAMP accumulation; type: functional, cell-based, PC-12
[8] = species on record: Homo sapiens; assay: Selectivity for human adenosine A2A receptor over human adenosine A1 receptor
[9] = test system: Rattus norvegicus; assay: Inhibition of haloperidol-induced catalepsy in po dosed rat; type: functional; details: read-out: MED

Adenosine receptor A2a (Homo sapiens, UniProt P29274), sequence (P29274 whole entry): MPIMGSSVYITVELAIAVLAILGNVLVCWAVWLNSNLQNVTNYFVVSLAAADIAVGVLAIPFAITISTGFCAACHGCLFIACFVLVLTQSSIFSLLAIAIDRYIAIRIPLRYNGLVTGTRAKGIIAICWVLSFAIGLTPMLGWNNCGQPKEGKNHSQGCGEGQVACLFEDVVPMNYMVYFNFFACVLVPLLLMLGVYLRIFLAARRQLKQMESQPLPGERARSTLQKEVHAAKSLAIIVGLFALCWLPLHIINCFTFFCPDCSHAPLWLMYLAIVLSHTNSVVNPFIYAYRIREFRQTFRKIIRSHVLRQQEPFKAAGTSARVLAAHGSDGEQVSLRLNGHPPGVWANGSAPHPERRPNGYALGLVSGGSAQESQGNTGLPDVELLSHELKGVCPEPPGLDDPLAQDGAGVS
Adenosine receptor A2a (Rattus norvegicus, UniProt P30543), sequence (P30543 whole entry): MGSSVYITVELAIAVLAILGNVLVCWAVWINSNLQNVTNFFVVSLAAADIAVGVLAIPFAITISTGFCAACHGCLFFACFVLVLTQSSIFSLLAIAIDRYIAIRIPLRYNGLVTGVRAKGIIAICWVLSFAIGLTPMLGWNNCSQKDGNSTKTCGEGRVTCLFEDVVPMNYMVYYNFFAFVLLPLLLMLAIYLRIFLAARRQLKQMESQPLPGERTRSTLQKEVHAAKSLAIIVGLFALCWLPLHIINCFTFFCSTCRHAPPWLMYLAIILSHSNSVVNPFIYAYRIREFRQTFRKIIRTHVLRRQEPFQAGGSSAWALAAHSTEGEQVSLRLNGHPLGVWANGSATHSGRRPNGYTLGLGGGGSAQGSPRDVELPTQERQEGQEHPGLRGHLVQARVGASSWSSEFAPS
Cytochrome P450 3A4, sequence (P08684 whole entry): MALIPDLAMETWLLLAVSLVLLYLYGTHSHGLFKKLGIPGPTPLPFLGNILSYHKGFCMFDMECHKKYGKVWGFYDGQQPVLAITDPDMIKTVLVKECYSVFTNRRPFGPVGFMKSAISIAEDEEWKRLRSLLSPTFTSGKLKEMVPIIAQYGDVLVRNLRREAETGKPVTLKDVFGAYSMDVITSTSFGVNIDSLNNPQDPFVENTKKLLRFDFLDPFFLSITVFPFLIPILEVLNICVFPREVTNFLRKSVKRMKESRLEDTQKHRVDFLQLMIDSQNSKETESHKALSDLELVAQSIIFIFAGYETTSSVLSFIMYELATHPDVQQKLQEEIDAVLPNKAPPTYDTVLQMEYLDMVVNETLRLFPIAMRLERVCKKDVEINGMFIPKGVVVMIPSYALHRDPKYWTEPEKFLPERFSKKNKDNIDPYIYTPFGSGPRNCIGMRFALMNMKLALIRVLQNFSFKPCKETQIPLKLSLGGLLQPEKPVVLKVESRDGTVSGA
Cytochrome P450 2D6, sequence (P10635 whole entry): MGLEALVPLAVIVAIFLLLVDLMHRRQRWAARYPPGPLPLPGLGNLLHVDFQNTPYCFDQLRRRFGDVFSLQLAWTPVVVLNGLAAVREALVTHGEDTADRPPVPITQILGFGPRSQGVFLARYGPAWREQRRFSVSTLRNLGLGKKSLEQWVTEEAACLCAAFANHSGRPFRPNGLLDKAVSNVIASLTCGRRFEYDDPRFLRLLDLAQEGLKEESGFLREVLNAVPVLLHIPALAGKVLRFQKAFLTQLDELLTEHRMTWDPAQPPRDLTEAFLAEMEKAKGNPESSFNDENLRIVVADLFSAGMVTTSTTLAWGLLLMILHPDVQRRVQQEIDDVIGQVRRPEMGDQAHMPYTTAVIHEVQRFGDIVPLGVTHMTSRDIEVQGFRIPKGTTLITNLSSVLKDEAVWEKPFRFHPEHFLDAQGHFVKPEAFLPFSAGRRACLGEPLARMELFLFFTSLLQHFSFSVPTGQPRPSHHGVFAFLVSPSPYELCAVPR

SMILES | Ki [2] [nM] | Ratio Ki [8] | also measured
CC(=O)Nc1cc(-c2cc(F)cc(O[C@H]3CCN(C)C3)c2)nc(-n2nc(C)cc2C)n1 | 1 | 218 | Activity [1]: Not Active; Activity [3]: Active; Activity [4]: Not Active; CLint scaled [5]: 3 mL/min/kg; solubility [6]: > 4000 µg/mL; IC50 [7]: 15 nM
CC(=O)Nc1cc(-c2cc(F)cc(OC3CCN(C)C3)c2)nc(-n2nc(C)cc2C)n1 (centres undefined) | 1 | 135 | CLint scaled [5]: 3 mL/min/kg
CC(=O)Nc1cc(-c2cc(C)cc(C)c2)nc(-n2nc(C)cc2C)n1 | 8 | 43 | –
COc1ccc(-c2cc(NC(C)=O)nc(-n3nc(C)cc3C)n2)cc1 | 17 | 44 | –
CC(=O)Nc1cc(-c2cccc(C)c2)nc(-n2nc(C)cc2C)n1 | 7 | 59 | –
CC(=O)Nc1cc(-c2cccc(CO[C@H]3CCN(C)C3)c2)nc(-n2nc(C)cc2C)n1 | 73 | 102 | –
CC(=O)Nc1cc(-c2cccc(OC3CCCN(C)C3)c2)nc(-n2nc(C)cc2C)n1 (centres undefined) | 1 | 203 | –
CC(=O)Nc1cc(-c2ccccc2)nc(-n2nc(C)cc2C)n1 | 87 | 7 | –
COc1cc(OC)cc(-c2cc(NC(C)=O)nc(-n3nc(C)cc3C)n2)c1 | 0.2 | 111 | Activity ([4]; TDE = time-dependent effect): tde; minimal effective dose [9]: 1 mg/kg; solubility [6]: < 100 µg/mL; IC50 [7]: 29 nM
CC(=O)Nc1cc(-c2cccc(CO[C@@H]3CCN(C)C3)c2)nc(-n2nc(C)cc2C)n1 | 67 | 99 | –
CC(=O)Nc1cc(-c2cc(C)ccc2C)nc(-n2nc(C)cc2C)n1 | 19 | 46 | –
CC(=O)Nc1cc(-c2cccc(OC3CCN(C)CC3)c2)nc(-n2nc(C)cc2C)n1 | 6 | 146 | –
CC(=O)Nc1cc(-c2cc(F)cc(O[C@@H]3CCN(C)C3)c2)nc(-n2nc(C)cc2C)n1 | 2 | 125 | CLint scaled [5]: 3 mL/min/kg

Now from value to molecule, other results behind:

Ki [2] [nM] | Ratio Ki [8] | SMILES | also measured
2 | 50 | CC(=O)Nc1cc(-c2cccc(CC#N)c2)nc(-n2nc(C)cc2C)n1 | –
4 | 145 | CC(=O)Nc1cc(-c2cccc(O[C@@H]3CCN(C)C3)c2)nc(-n2nc(C)cc2C)n1 | –
2 | 320 | CC(=O)Nc1cc(-c2cccc(O[C@H]3CCN(C)C3)c2)nc(-n2nc(C)cc2C)n1 | –
1 | 72 | COc1cccc(-c2cc(NC(C)=O)nc(-n3nc(C)cc3C)n2)c1 | –
5 | 134 | CC(=O)Nc1cc(-c2cccc(OCCN(C)C)c2)nc(-n2nc(C)cc2C)n1 | solubility [6]: > 4000 µg/mL
3 | – | CN1CCN(CC(=O)Nc2cc(-n3cccn3)nc(-c3ccco3)n2)CC1 | –
2 | 191 | CC(=O)Nc1cc(-c2cccc(OC3CCN(C)C3)c2)nc(-n2nc(C)cc2C)n1 (centres undefined) | CLint scaled [5]: 54 mL/min/kg; solubility [6]: > 4000 µg/mL; IC50 [7]: 42 nM
3 | 164 | COc1c(F)cccc1-c1cc(NC(C)=O)nc(-n2nc(C)cc2C)n1 | solubility [6]: < 100 µg/mL
3 | 168 | CCN1CCC(Oc2cccc(-c3cc(NC(C)=O)nc(-n4nc(C)cc4C)n3)c2)C1 (centres undefined) | –
2 | 71 | COc1ccccc1-c1cc(NC(C)=O)nc(-n2nc(C)cc2C)n1 | –
2 | 10 | CC(=O)Nc1cc(-c2cccc(C#N)c2)nc(-n2nc(C)cc2C)n1 | –
3 | 167 | CC(=O)Nc1cc(-c2cccc(OC3CCN(C(C)C)C3)c2)nc(-n2nc(C)cc2C)n1 (centres undefined) | –
4 | 64 | CC(=O)Nc1cc(-c2cc(F)cc(F)c2)nc(-n2nc(C)cc2C)n1 | –
2 | 74 | CC(=O)Nc1cc(-c2cccc(O)c2)nc(-n2nc(C)cc2C)n1 | –
2 | 54 | CC(=O)Nc1cc(-c2cc(O)cc(F)c2)nc(-n2nc(C)cc2C)n1 | –
2 | 40 | CC(=O)Nc1cc(-c2cccc(C(F)(F)F)c2)nc(-n2nc(C)cc2C)n1 | –
